Measurements: US20230295234A1, “ANTIMICROBIAL PEPTIDOMIMETICS” (SPEXIS AG, priority 2020, published 2023)
Where two headings read alike, the source gives them in different places. Peptide text beside a SMILES is read from it.

What was measured:
[1] = system: human red blood cells (hRBC); experiment: Hemolysis of human red blood cells; assay type: cell-based
Summary of the method: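 PBS-washed human red blood cells (20% v/v) were incubated with peptide at 200 μg/mL for 1 h at 37 °C with shaking. Supernatant OD was read at 540 nm after 8-fold dilution. Hemolysis is expressed as percent of the water control.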

[2] = system: Klebsiella pneumoniae SSI3010
Summary of the method: (§1)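 Activity is measured against peptides serially diluted two-fold in water with 0.002% final Polysorbate 80. The cells are in cation-adjusted MHII broth at roughly 5×10^5 CFU/mL, prepared from a 0.5 McFarland suspension in 0.85% NaCl.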

[3] = system: Escherichia coli ATCC 25922
Summary of the method: as §1

[4] = system: Escherichia coli MCR-1 Af 45; details: Mueller-Hinton broth II, 18-20 hours at 35° C.
Summary of the method: as §1

[5] = Mueller-Hinton broth II, 18-20 hours at 35° C.

| SMILES | Hemolysis at 0.2 g/L ([1]; red cells of human, 1 h) | Klebsiella pneumoniae SSI3010 MIC ([2]; SSI3010) | Escherichia coli ATCC 25922 MIC ([3]; ATCC 25922) | Escherichia coli MCR-1 Af 45 MIC [4] | Hemolysis at 0.2 g/L ([1]; 20% hRBC, 1 h at 37° C.) | Klebsiella pneumoniae SSI3010 MIC [2, 5] | Escherichia coli ATCC 25922 MIC [3, 5] |
| --- | --- | --- | --- | --- | --- | --- | --- |
| CC[C@H](C)[C@H](NC(=O)[C@@H]1CCCN1C(=O)[C@@H](N)C(C)C)C(=O)N[C@@H](Cc1ccccc1)C(=O)N[C@@H](Cc1ccc(O)cc1)C(=O)N[C@H]1CSSC[C@@H](C(=O)N[C@@H](CCN)C(=O)N[C@@H](CCCNC(=N)N)C(=O)N[C@@H](Cc2ccc(O)cc2)C(=O)O)NC(=O)[C@H](CCCCN)NC(=O)[C@@H](CCN)NC(=O)[C@H]([C@@H](C)O)NC(=O)[C@H](CCN)NC(=O)[C@H](CCCNC(=N)N)NC(=O)[C@H](CC(N)=O)NC1=O [Example 145] (HELM PEPTIDE1{V.P.I.F.Y.C.N.R.[Dab].T.[NCC[C@@H](N[*:1])C(=O)[*:2]].K.C.[Dab].R.Y}$PEPTIDE1,PEPTIDE1,6:R3-13:R3$$$V2.0) | 0% | 0.125 µg/mL | 0.0625 µg/mL | 0.0625 µg/mL | – | – | – |
| CC[C@H](C)[C@H](NC(=O)[C@@H](NC(=O)[C@@H]1CCCN1C(=O)[C@@H](O)C(C)C)[C@@H](C)CC)C(=O)N[C@@H](Cc1ccc(O)cc1)C(=O)N[C@H]1CSSC[C@@H](C(=O)N[C@@H](CCN)C(=O)N[C@@H](CCCNC(=N)N)C(=O)N[C@@H](Cc2ccc(O)cc2)C(=O)O)NC(=O)[C@H](CCCCN)NC(=O)[C@@H](CCN)NC(=O)[C@H]([C@@H](C)O)NC(=O)[C@H](CCN)NC(=O)[C@H](CCCNC(=N)N)NC(=O)[C@H](CC(N)=O)NC1=O [Example 146] (HELM PEPTIDE1{[CC(C)[C@H](O)C(=O)[*:2]].P.I.I.Y.C.N.R.[Dab].T.[NCC[C@@H](N[*:1])C(=O)[*:2]].K.C.[Dab].R.Y}$PEPTIDE1,PEPTIDE1,6:R3-13:R3$$$V2.0) | 0% | 0.5 µg/mL | 0.5 µg/mL | 0.5 µg/mL | – | – | – |
| CC[C@H](C)[C@H](NC(=O)[C@@H](NC(=O)[C@@H]1C[C@@H](O)CN1C(=O)[C@@H](N)C(C)C)[C@@H](C)CC)C(=O)N[C@@H](Cc1ccc(O)cc1)C(=O)N[C@@H]1C(=O)N[C@@H](CC(N)=O)C(=O)N[C@@H](CCCNC(=N)N)C(=O)N[C@@H](CCN)C(=O)N[C@@H]([C@@H](C)O)C(=O)N[C@H](CCN)C(=O)N[C@@H](CCCCN)C(=O)N[C@H](C(=O)N[C@@H](CCN)C(=O)N[C@@H](CCCNC(=N)N)C(=O)N[C@@H](Cc2ccc(O)cc2)C(=O)O)CSSC1(C)C [Example 147] (HELM PEPTIDE1{V.[Hyp].I.I.Y.[Pen].N.R.[Dab].T.[NCC[C@@H](N[*:1])C(=O)[*:2]].K.C.[Dab].R.Y}$PEPTIDE1,PEPTIDE1,6:R3-13:R3$$$V2.0) | – | – | – | 0.0625 µg/mL | 0% | 0.25 µg/mL | 0.125 µg/mL |
| CC[C@H](C)[C@H](NC(=O)[C@@H]1C[C@@H](O)CN1C(=O)[C@@H](N)C(C)C)C(=O)N[C@H](C(=O)N[C@@H](Cc1ccc(O)cc1)C(=O)N[C@@H]1C(=O)N[C@@H](CC(N)=O)C(=O)N[C@@H](CCCNC(=N)N)C(=O)N[C@@H](CCN)C(=O)N[C@@H]([C@@H](C)O)C(=O)N[C@H](CCN)C(=O)N[C@@H](CCCCN)C(=O)N[C@H](C(=O)N[C@@H](CCN)C(=O)N[C@@H](CCCNC(=N)N)C(=O)N[C@@H](Cc2ccc(O)cc2)C(=O)O)CSSC1(C)C)[C@@H](C)O [Example 148] (HELM PEPTIDE1{V.[Hyp].I.T.Y.[Pen].N.R.[Dab].T.[NCC[C@@H](N[*:1])C(=O)[*:2]].K.C.[Dab].R.Y}$PEPTIDE1,PEPTIDE1,6:R3-13:R3$$$V2.0) | 0% | 0.25 µg/mL | ≤0.125 µg/mL | 0.125 µg/mL | – | – | – |
| CC[C@H](C)[C@H](NC(=O)[C@@H]1C[C@@H](O)CN1C(=O)[C@@H](N)C(C)C)C(=O)N[C@H](C(=O)N[C@@H](Cc1ccc(O)cc1)C(=O)N[C@@H]1C(=O)N[C@@H](CC(N)=O)C(=O)N[C@@H](CCCNC(=N)N)C(=O)N[C@@H](CCN)C(=O)N[C@@H]([C@@H](C)O)C(=O)N[C@H](CN)C(=O)N[C@@H](CCCCN)C(=O)N[C@H](C(=O)N[C@@H](CCN)C(=O)N[C@@H](CCCNC(=N)N)C(=O)N[C@@H](Cc2ccc(O)cc2)C(=O)O)CSSC1(C)C)[C@@H](C)O [Example 149] (HELM PEPTIDE1{V.[Hyp].I.T.Y.[Pen].N.R.[Dab].T.[NC[C@@H](N[*:1])C(=O)[*:2]].K.C.[Dab].R.Y}$PEPTIDE1,PEPTIDE1,6:R3-13:R3$$$V2.0) | 0% | 0.5 µg/mL | 0.25 µg/mL | 0.25 µg/mL | – | – | – |
| CC[C@H](C)[C@H](NC(=O)[C@@H]1C[C@@H](O)CN1C(=O)[C@@H](N)C(C)C)C(=O)N[C@H](C(=O)N[C@@H](Cc1ccc(O)cc1)C(=O)N[C@@H]1C(=O)N[C@@H](CC(N)=O)C(=O)N[C@@H](CCCNC(=N)N)C(=O)N[C@@H](CCN)C(=O)N[C@@H]([C@@H](C)O)C(=O)N[C@H](CCCN)C(=O)N[C@@H](CCCCN)C(=O)N[C@H](C(=O)N[C@@H](CCN)C(=O)N[C@@H](CCCNC(=N)N)C(=O)N[C@@H](Cc2ccc(O)cc2)C(=O)O)CSSC1(C)C)[C@@H](C)O [Example 150] (HELM PEPTIDE1{V.[Hyp].I.T.Y.[Pen].N.R.[Dab].T.[NCCC[C@@H](N[*:1])C(=O)[*:2]].K.C.[Dab].R.Y}$PEPTIDE1,PEPTIDE1,6:R3-13:R3$$$V2.0) | 0% | 0.5 µg/mL | 0.25 µg/mL | 0.125 µg/mL | – | – | – |
| CC[C@H](C)[C@H](NC(=O)[C@@H]1C[C@@H](O)CN1C(=O)[C@@H](N)C(C)C)C(=O)N[C@H](C(=O)N[C@@H](Cc1ccc(O)cc1)C(=O)N[C@@H]1C(=O)N[C@@H](CC(N)=O)C(=O)N[C@@H](CCCNC(=N)N)C(=O)N[C@@H](CCN)C(=O)N[C@@H]([C@@H](C)O)C(=O)N[C@H](CCCCN)C(=O)N[C@@H](CCCCN)C(=O)N[C@H](C(=O)N[C@@H](CCN)C(=O)N[C@@H](CCCNC(=N)N)C(=O)N[C@@H](Cc2ccc(O)cc2)C(=O)O)CSSC1(C)C)[C@@H](C)O [Example 151] (HELM PEPTIDE1{V.[Hyp].I.T.Y.[Pen].N.R.[Dab].T.[dK].K.C.[Dab].R.Y}$PEPTIDE1,PEPTIDE1,6:R3-13:R3$$$V2.0) | 0% | 0.5 µg/mL | 0.25 µg/mL | 0.25 µg/mL | – | – | – |
| CC[C@H](C)[C@H](NC(=O)[C@@H]1C[C@@H](O)CN1C(=O)[C@@H](N)C(C)C)C(=O)N[C@H](C(=O)N[C@@H](Cc1ccc(O)cc1)C(=O)N[C@@H]1C(=O)N[C@@H](CC(N)=O)C(=O)N[C@@H](CCCNC(=N)N)C(=O)N[C@@H](CCN)C(=O)N[C@@H]([C@@H](C)O)C(=O)N[C@H](CCCNC(=N)N)C(=O)N[C@@H](CCCCN)C(=O)N[C@H](C(=O)N[C@@H](CCN)C(=O)N[C@@H](CCCNC(=N)N)C(=O)N[C@@H](Cc2ccc(O)cc2)C(=O)O)CSSC1(C)C)[C@@H](C)O [Example 152] (HELM PEPTIDE1{V.[Hyp].I.T.Y.[Pen].N.R.[Dab].T.[dR].K.C.[Dab].R.Y}$PEPTIDE1,PEPTIDE1,6:R3-13:R3$$$V2.0) | 0% | 0.25 µg/mL | 0.25 µg/mL | 0.25 µg/mL | – | – | – |
| CC[C@H](C)[C@H](NC(=O)[C@@H]1C[C@@H](O)CN1C(=O)[C@@H](N)C(C)C)C(=O)N[C@@H](CCN)C(=O)N[C@@H](Cc1ccc(O)cc1)C(=O)N[C@@H]1C(=O)N[C@@H](CC(N)=O)C(=O)N[C@@H](CCCNC(=N)N)C(=O)N[C@@H](CCN)C(=O)N[C@@H]([C@@H](C)O)C(=O)N[C@H](CCN)C(=O)N[C@@H](CCCCN)C(=O)N[C@H](C(=O)N[C@@H](CCN)C(=O)N[C@H](C(=O)N[C@@H](Cc2ccc(O)cc2)C(=O)O)[C@@H](C)O)CSSC1(C)C [Example 153] (HELM PEPTIDE1{V.[Hyp].I.[Dab].Y.[Pen].N.R.[Dab].T.[NCC[C@@H](N[*:1])C(=O)[*:2]].K.C.[Dab].T.Y}$PEPTIDE1,PEPTIDE1,6:R3-13:R3$$$V2.0) | 0% | 0.5 µg/mL | 0.125 µg/mL | 0.5 µg/mL | – | – | – |
| CC[C@H](C)[C@H](NC(=O)[C@@H]1C[C@@H](O)CN1C(=O)[C@@H](N)C(C)C)C(=O)N[C@@H](CCCNC(=N)N)C(=O)N[C@@H](Cc1ccc(O)cc1)C(=O)N[C@@H]1C(=O)N[C@@H](CC(N)=O)C(=O)N[C@@H](CCCNC(=N)N)C(=O)N[C@@H](CCN)C(=O)N[C@@H]([C@@H](C)O)C(=O)N[C@H](CCN)C(=O)N[C@@H](CCCCN)C(=O)N[C@H](C(=O)N[C@@H](CCN)C(=O)N[C@H](C(=O)N[C@@H](Cc2ccc(O)cc2)C(=O)O)[C@@H](C)O)CSSC1(C)C [Example 154] (HELM PEPTIDE1{V.[Hyp].I.R.Y.[Pen].N.R.[Dab].T.[NCC[C@@H](N[*:1])C(=O)[*:2]].K.C.[Dab].T.Y}$PEPTIDE1,PEPTIDE1,6:R3-13:R3$$$V2.0) | 0% | 0.5 µg/mL | 0.25 µg/mL | 0.25 µg/mL | – | – | – |
